Reference: publication PMC4814829, “Design, synthesis, crystallization and biological evaluation of new symmetrical biscationic compounds as selective inhibitors of human Choline Kinase α1 (ChoKα1)” (Scientific Reports, 2016)

How the values were obtained:
[1] = target: T1, human ChoKα1 (Homo sapiens, UniProt P35790); experiment: Tryptophan fluorescence quenching; assay type: binding; conditions: mean ± S.D. of at least three independent experiments; 25 °C, enzyme 1 μM; read-out: HsChoKα1 Kd
T1 construct: made in house
T1 sequence (P35790 whole entry): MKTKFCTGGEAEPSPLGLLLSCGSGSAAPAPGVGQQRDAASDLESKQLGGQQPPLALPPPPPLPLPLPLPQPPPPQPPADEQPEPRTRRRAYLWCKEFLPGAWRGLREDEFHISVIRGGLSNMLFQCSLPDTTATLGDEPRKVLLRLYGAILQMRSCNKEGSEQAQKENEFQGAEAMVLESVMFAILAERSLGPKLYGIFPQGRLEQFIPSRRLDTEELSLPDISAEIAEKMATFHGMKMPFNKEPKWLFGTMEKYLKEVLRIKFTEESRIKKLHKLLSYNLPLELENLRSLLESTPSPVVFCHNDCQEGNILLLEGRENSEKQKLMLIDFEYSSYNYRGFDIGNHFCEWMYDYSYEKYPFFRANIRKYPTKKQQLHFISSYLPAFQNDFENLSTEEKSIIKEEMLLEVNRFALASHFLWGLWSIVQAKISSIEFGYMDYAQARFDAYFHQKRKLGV
Procedure: All compounds were prepared in 100% DMSO. Their Kds against human ChoKα1 were measured by monitoring the quenching of tryptophan fluorescence. All experiments were performed in a Cary Eclipse spectrofluorometer (Varian) at 25 °C with the enzymes at 1 μM, and concentrations of compounds varying from 0.1 to 5 μM for ChoKα1 in 25 mM Tris, 150 mM NaCl, pH 7.5. Fluorescence emission spectra were recorded in the 300–400 nm range with an excitation wavelength of 280 nm, with slit width of 5 nm. Controls were determined by incubating the enzymes with equivalent amounts of DMSO. As indicated previously, data analysis was performed in Prism (GraphPad software) considering a model with a single binding site (Eq. 1), where F0 is the intrinsic fluorescence of the enzyme in the absence of quencher (Q), F1 is the observed fluorescence at a given quencher concentration, fa is the fractional degree of fluorescence, and Kd is the dissociation constant.

[2] = target: purified human ChoKα1 (Homo sapiens, UniProt P35790); experiment: Determination of human choline kinase α1 activity ([methyl-14C]choline incorporation into phosphocholine); assay type: biochemical; conditions: mean ± SEM, three independent experiments; read-out: IC50 ChoKα1 purified
Sequence of purified human ChoKα1 (P35790 whole entry): as above

[3] = tested on: A549 cells; experiment: Antiproliferative MTT assay; assay type: cell-based; conditions: Homo sapiens, 72 h, mean ± SEM
Procedure: (§1) Human T-cell leukemia (Jurkat), human B-cell leukemia (RS 4,11) and human promyelocytic leukemia (HL-60) cells were grown in RPMI-1640 medium (Gibco, Milan, Italy). Breast adenocarcinoma (MCF-7 and MDA-MB-231), human non-small cell lung carcinoma (A549), human cervix carcinoma (HeLa), human prostate adenocarcinoma (PC-3), and human colon adenocarcinoma (HT-29) cells were grown in DMEM medium (Gibco, Milan, Italy). Both media were supplemented with 115 units/mL of penicillin G (Gibco, Milan, Italy), 115 μg/mL of streptomycin (Invitrogen, Milan, Italy) and 10% fetal bovine serum (Invitrogen, Milan, Italy). Stock solutions (10 mM) of the different compounds were obtained by dissolving them in DMSO. Individual wells of 96-well tissue-culture microtiter plates were inoculated with 100 μL of complete medium containing 8 × 10^3 cells. The plates were incubated at 37 °C in a humidified 5% CO2 incubator for 18 h prior to the experiments. After medium removal, 100 μL of fresh medium containing the test compound at different concentrations was added to each well and incubated at 37 °C for 72 h. The percentage of DMSO in the medium in no case exceeded 0.25%.

[4] = tested on: HL-60 cells; experiment: Antiproliferative MTT assay; assay type: cell-based; conditions: Homo sapiens, 72 h, mean ± SEM
Procedure: as §1

[5] = tested on: HT-29 cells; experiment: Antiproliferative MTT assay; assay type: cell-based; conditions: Homo sapiens, 72 h, mean ± SEM
Procedure: as §1

[6] = tested on: HeLa cells; experiment: Antiproliferative MTT assay; assay type: cell-based; conditions: Homo sapiens, 72 h, mean ± SEM
Procedure: as §1

[7] = tested on: Jurkat cells; experiment: Antiproliferative MTT assay; assay type: cell-based; conditions: Homo sapiens, 72 h, mean ± SEM
Procedure: as §1

[8] = tested on: MCF-7 cells; experiment: Antiproliferative MTT assay; assay type: cell-based; conditions: Homo sapiens, MCF7, 72 h, mean ± SEM
Procedure: as §1

[9] = tested on: MDA-MB-231 cells; experiment: Antiproliferative MTT assay; assay type: cell-based; conditions: Homo sapiens, 72 h, mean ± SEM
Procedure: as §1

[10] = tested on: PC-3 cells; experiment: Antiproliferative MTT assay; assay type: cell-based; conditions: Homo sapiens, 72 h, mean ± SEM
Procedure: as §1

[11] = tested on: RS4,11 cells; experiment: Antiproliferative MTT assay; assay type: cell-based; conditions: Homo sapiens, 72 h, mean ± SEM
Procedure: as §1

[12] = tested on: PBL (+Pha); experiment: Antiproliferative assay in non-tumoral cells (MTT); assay type: cell-based; conditions: Homo sapiens, non-tumoral cells stimulated with phytohematoagglutinin, 72 h, mean ± SEM
Procedure: (§2) Peripheral mononuclear cells (PBMC) from healthy donors were obtained by separation on Lymphoprep (Fresenius KABI Norge AS) gradient. After extensive washing, cells were resuspended (1 × 10^6 cells/mL) in RPMI-1640 with 10% fetal bovine serum and incubated overnight. For cytotoxicity evaluations in proliferating PBL cultures, non-adherent cells were resuspended at 5 × 10^5 cells/mL in growth medium, containing 2.5 μg/mL PHA (Irvine Scientific). Different concentrations of the test compounds were added, and viability was determined 72 h later by the MTT test. For cytotoxicity evaluations in resting PBL cultures, non-adherent cells were resuspended (5 × 10^5 cells/mL) and treated for 72 h with the test compounds, as described above.

[13] = tested on: PBL (resting); experiment: Antiproliferative assay in non-tumoral cells (MTT); assay type: cell-based; conditions: Homo sapiens, 72 h, mean ± SEM
Procedure: as §2

[14] = tested on: Human fibroblasts; experiment: Antiproliferative assay in non-tumoral cells; assay type: cell-based; conditions: Fibroblast, mean ± SEM
Excerpt: Human fibroblasts from foreskin were isolated as previously described[58] and maintained in DMEM medium with 10% fetal bovine serum added.

Row | SMILES | Kd [1] [nM] | IC50 [2] [nM] | GI50 [3] [nM] | GI50 [4] [nM] | GI50 [5] [nM] | GI50 [6] [nM] | GI50 [7] [nM] | GI50 [8] [nM] | GI50 [9] [nM] | GI50 [10] [nM] | GI50 [11] [nM] | GI50 [12] [nM] | GI50 [13] [nM] | GI50 [14] [nM]
1 | CN(C)c1cc[n+](Cc2ccc(CCCCc3ccc(C[n+]4ccc(N(C)c5ccc(Cl)cc5)cc4)cc3)cc2)cc1 [Compound 4, reference compound] | 110 ± 10 | – | – | – | – | – | – | – | – | – | – | – | – | –
2 | Clc1ccc2c(N3CCCCCC3)cc[n+](Cc3ccc(OCCOc4ccc(C[n+]5ccc(N6CCCCCC6)c6ccc(Cl)cc65)cc4)cc3)c2c1 [Compound 10k, 1,1′-(((ethane-1,2-diylbis(oxy))bis(4,1-phenylene))bis(methylene))bis(4-(azepan-1-yl)-7-chloroquinolinium) bromide] | 241 ± 30 | 2020 ± 80 | 520 ± 20 | 180 ± 60 | 270 ± 50 | 260 ± 74 | 72 ± 13 | 280 ± 90 | 61 ± 3 | 110 ± 28 | 36 ± 8 | 34 ± 7 | 2100 ± 800 | 3200 ± 860
3 | CN(c1ccc(Cl)cc1)c1cc[n+](Cc2ccc(OCCOc3ccc(C[n+]4ccc(N(C)c5ccc(Cl)cc5)c5ccc(Cl)cc54)cc3)cc2)c2cc(Cl)ccc12 [Compound 10i, 1,1′-(((ethane-1,2-diylbis(oxy))bis(4,1-phenylene))bis(methylene))bis(7-chloro-4-((4-chlorophenyl)(methyl)amino)quinolinium) bromide] | – | 16200 ± 440 | 290 ± 100 | 870 ± 280 | 1000 ± 150 | 1500 ± 730 | 760 ± 260 | 660 ± 70 | 150 ± 50 | 720 ± 90 | 500 ± 90 | – | – | –
4 | CN(c1ccccc1)c1cc[n+](Cc2ccc(OCCOc3ccc(C[n+]4ccc(N(C)c5ccccc5)c5ccccc54)cc3)cc2)c2ccccc12 [Compound 10f, 1,1′-(((ethane-1,2-diylbis(oxy))bis(4,1-phenylene))bis(methylene))bis(4-(methyl(phenyl)amino)quinolinium) bromide] | 295 ± 127 | 6850 ± 810 | 210 ± 60 | 63 ± 13 | 120 ± 17 | 150 ± 31 | 60 ± 2 | 170 ± 65 | 1 ± 1 | 470 ± 120 | 240 ± 50 | 100 ± 30 | 1400 ± 600 | 9800 ± 2500
5 | c1ccc2c(c1)c(N1CCCCCC1)cc[n+]2Cc1ccc(OCCOc2ccc(C[n+]3ccc(N4CCCCCC4)c4ccccc43)cc2)cc1 [Compound 10j, 1,1′-(((ethane-1,2-diylbis(oxy))bis(4,1-phenylene))bis(methylene))bis(4-(azepan-1-yl)quinolinium) bromide] | – | 1660 ± 90 | 300 ± 68 | 420 ± 220 | 150 ± 80 | 170 ± 84 | 110 ± 26 | 110 ± 47 | 10 ± 5 | 90 ± 40 | 160 ± 12 | 95 ± 21 | 2000 ± 240 | 14300 ± 1200
